From patent publication US20090143279A1 (priority 2007, published 2009)
Where two headings read alike, the source gives them in different places.

Columns and labels:
[1] = tested on: mitochondrial membrane potential; format: cell-based, mouse; details: for ΔΨm (composite Z-score): normalized score vs mock-treated (DMSO) wells
reactive oxygen species = format: cell-based, mouse; details: for ROS (composite Z-score): normalized score vs mock-treated (DMSO) wells
OXPHOS gene expression = format: cell-based, mouse; details: for GE-HTS (composite Z-score): normalized score vs mock-treated (DMSO) wells
mtOXPHOS transcripts = format: cell-based, mouse; details: for mitoOX (composite Z-score): normalized score vs mock-treated (DMSO) wells
[2] = tested on: cellular dehydrogenase activity; details: for MTT (composite Z-score): normalized score vs mock-treated (DMSO) wells
C2C12 myotubes = details: for Viability (composite Z-score): normalized score vs mock-treated (DMSO) wells
cytochrome c = format: cell-based, mouse; details: for cyt c (composite Z-score): normalized score vs mock-treated (DMSO) wells
nuOXPHOS transcripts = format: cell-based, mouse; details: for nucOX (composite Z-score): normalized score vs mock-treated (DMSO) wells
[3] = normalized composite Z-score vs mock-treated (DMSO) wells, Conc 20 μM
[4] = composite Z-score vs mock-treated (DMSO) wells, Conc 20 μM
[5] = composite Z-score vs DMSO, Conc 20 μM
[6] = composite Z-score vs DMSO wells, Conc 20 μM
[7] = 13.14 μM, composite Z-score vs DMSO
[8] = 20 μM, composite Z-score vs DMSO
[9] = 7.92 μM, composite Z-score vs DMSO

## O=C(Oc1cc(OC(=O)c2ccccc2)c2c(c1)O[C@H](c1ccc(OC(=O)c3ccccc3)c(OC(=O)c3ccccc3)c1)[C@@H](OC(=O)c1ccccc1)C2)c1ccccc1 [catechin pentabenzoate]
[1]; Conc 20 μM
  ΔΨm (composite Z-score): −1.326
Reactive oxygen species; Conc 20 μM
  ROS (composite Z-score): 0.599
OXPHOS gene expression; Conc 20 μM
  GE-HTS (composite Z-score): −0.898
mtOXPHOS transcripts; Conc 20 μM
  mitoOX (composite Z-score): −0.896
[2]; Conc 20 μM
  MTT (composite Z-score): −1.672
C2C12 myotubes; Conc 20 μM
  Viability (composite Z-score): −1.434
Cytochrome c; Conc 20 μM
  cyt c (composite Z-score): 1.272
nuOXPHOS transcripts; Conc 20 μM
  nucOX (composite Z-score): −0.815

## COc1cc(OC)c2c(c1)O[C@H](c1ccc(OC)c(OC)c1)[C@@H](O)C2 [catechin tetramethylether]
[1]; [3]
  ΔΨm: −0.172
Reactive oxygen species; [3]
  ROS: −0.094
OXPHOS gene expression; [3]
  GE-HTS: −1.052
mtOXPHOS transcripts; [3]
  mitoOX: −0.798
[2]; [3]
  MTT: −0.573
C2C12 myotubes; [3]
  Viability: 0.435
Cytochrome c; [3]
  cyt c: 0.586
nuOXPHOS transcripts; [3]
  nucOX: −1.106

## COc1cc(O)c(C(=O)c2ccccc2)cc1O [cearoin]
[1]; [4]
  ΔΨm: −1.006
Reactive oxygen species; [4]
  ROS: −2.274
OXPHOS gene expression; [4]
  GE-HTS: −1.672
mtOXPHOS transcripts; [4]
  mitoOX: −1.603
[2]; [4]
  MTT: −2.331
C2C12 myotubes; [4]
  Viability: −1.078
Cytochrome c; [4]
  cyt c: −1.478
nuOXPHOS transcripts; [4]
  nucOX: −1.568

## CC(=O)O[C@]1(C)CC[C@@]23C[C@@H]1C(C)(C)[C@@H]2CC[C@H]3C [cedryl acetate]
[1]; [3]
  ΔΨm: −0.042
Reactive oxygen species; [3]
  ROS: 1.566
OXPHOS gene expression; [3]
  GE-HTS: 0.067
mtOXPHOS transcripts; [3]
  mitoOX: −0.149
[2]; [3]
  MTT: −0.176
C2C12 myotubes; [3]
  Viability: −0.311
Cytochrome c; [3]
  cyt c: 0.388
nuOXPHOS transcripts; [3]
  nucOX: 0.184

## N[C@@H](C(=O)N[C@@H]1C(=O)N2C(C(=O)O)=C(Cl)CS[C@H]12)c1ccccc1 [cefaclor]
[1]
  ΔΨm: −0.759
[1]; [5]
  ΔΨm: −0.772
Reactive oxygen species
  ROS: 0.387
Reactive oxygen species; [5]
  ROS: 0.297
OXPHOS gene expression
  GE-HTS: 0.331
OXPHOS gene expression; [5]
  GE-HTS: −0.547
mtOXPHOS transcripts
  mitoOX: −0.161
mtOXPHOS transcripts; [5]
  mitoOX: −0.435
[2]
  MTT: −1.329
[2]; [5]
  MTT: −0.752
C2C12 myotubes
  Viability: 0.762
C2C12 myotubes; [5]
  Viability: −0.091
Cytochrome c
  cyt c: −0.764
Cytochrome c; [5]
  cyt c: 0.231
nuOXPHOS transcripts
  nucOX: 0.535
nuOXPHOS transcripts; [5]
  nucOX: −0.506

## CO/N=C(\C(=O)N[C@@H]1C(=O)N2C(C(=O)OCOC(=O)C(C)(C)C)=C(/C=C\c3scnc3C)CS[C@H]12)c1csc(N)n1 [cefditorin pivoxil]
[1]; [5]
  ΔΨm: 0.245
Reactive oxygen species; [5]
  ROS: 0.426
OXPHOS gene expression; [5]
  GE-HTS: 0.238
mtOXPHOS transcripts; [5]
  mitoOX: 0.440
[2]; [5]
  MTT: −0.718
C2C12 myotubes; [5]
  Viability: −0.219
Cytochrome c; [5]
  cyt c: 0.200
nuOXPHOS transcripts; [5]
  nucOX: 0.100

## CCN1CCN(C(=O)N[C@@H](C(=O)N[C@@H]2C(=O)N3C(C(=O)O)=C(CSc4nnnn4C)CS[C@H]23)c2ccc(O)cc2)C(=O)C1=O [cefoperazone]
[1]; [4]
  ΔΨm: −0.908
Reactive oxygen species; [4]
  ROS: −0.295
OXPHOS gene expression; [4]
  GE-HTS: 0.130
mtOXPHOS transcripts; [4]
  mitoOX: 0.367
[2]; [4]
  MTT: −0.793
C2C12 myotubes; [4]
  Viability: 0.097
Cytochrome c; [4]
  cyt c: 1.001
nuOXPHOS transcripts; [4]
  nucOX: 0.013

## CO/N=C(\C(=O)N[C@@H]1C(=O)N2C(C(=O)O)=C(COC(C)=O)CS[C@H]12)c1csc(N)n1 [cefotaxime]
[1]; [5]
  ΔΨm: −0.276
Reactive oxygen species; [5]
  ROS: 1.000
OXPHOS gene expression; [5]
  GE-HTS: −0.379
mtOXPHOS transcripts; [5]
  mitoOX: −0.214
[2]; [5]
  MTT: −2.276
C2C12 myotubes; [5]
  Viability: −1.283
Cytochrome c; [5]
  cyt c: 0.366
nuOXPHOS transcripts; [5]
  nucOX: −0.450

## CO/N=C(\C(=O)N[C@@H]1C(=O)N2C(C(=O)O)=C(CSc3nc(=O)c(=O)[nH]n3C)CS[C@H]12)c1csc(N)n1 [ceftriaxone]
[1]
  ΔΨm: −0.461
Reactive oxygen species
  ROS: −0.002
OXPHOS gene expression
  GE-HTS: −0.433
mtOXPHOS transcripts
  mitoOX: −0.382
[2]
  MTT: −1.040
C2C12 myotubes
  Viability: −0.792
Cytochrome c
  cyt c: 0.481
nuOXPHOS transcripts
  nucOX: −0.439

## CO/N=C(\C(=O)N[C@@H]1C(=O)N2C(C(=O)O)=C(COC(N)=O)CS[C@H]12)c1ccco1 [cefuroxime]
[1]; [5]
  ΔΨm: −0.358
Reactive oxygen species; [5]
  ROS: 0.366
OXPHOS gene expression; [5]
  GE-HTS: 0.816
mtOXPHOS transcripts; [5]
  mitoOX: 0.699
[2]; [5]
  MTT: −0.536
C2C12 myotubes; [5]
  Viability: −0.846
Cytochrome c; [5]
  cyt c: −0.495
nuOXPHOS transcripts; [5]
  nucOX: 0.790

## OC[C@H]1O[C@@H](O[C@H]2[C@H](O)[C@@H](O)[C@H](O)O[C@@H]2CO)[C@H](O)[C@@H](O)[C@@H]1O [cellobiose (D[+])]
[1]; [3]
  ΔΨm: −0.571
Reactive oxygen species; [3]
  ROS: −0.298
OXPHOS gene expression; [3]
  GE-HTS: −0.127
mtOXPHOS transcripts; [3]
  mitoOX: −0.466
[2]; [3]
  MTT: 0.411
C2C12 myotubes; [3]
  Viability: 0.390
Cytochrome c; [3]
  cyt c: 0.380
nuOXPHOS transcripts; [3]
  nucOX: 0.051

## COc1ccc(-c2oc3cc(O[C@@H]4O[C@H](CO)[C@@H](O)[C@H](O)[C@H]4O)c(OC)c(O)c3c(=O)c2OC)cc1O [centaurein]
[1]; Conc 20 μM
  ΔΨm (composite Z-score): −0.744
Reactive oxygen species; Conc 20 μM
  ROS (composite Z-score): −0.090
OXPHOS gene expression; Conc 20 μM
  GE-HTS (composite Z-score): 0.497
mtOXPHOS transcripts; Conc 20 μM
  mitoOX (composite Z-score): 0.657
[2]; Conc 20 μM
  MTT (composite Z-score): −1.640
C2C12 myotubes; Conc 20 μM
  Viability (composite Z-score): −0.006
Cytochrome c; Conc 20 μM
  cyt c (composite Z-score): −0.039
nuOXPHOS transcripts; Conc 20 μM
  nucOX (composite Z-score): 0.388

## CCOC(=O)CCCCCCCCCCCCC1C=CCC1 (stereo not shown) [chaulmoogric acid, ethyl ester]
[1]; [6]
  ΔΨm: −0.536
Reactive oxygen species; [6]
  ROS: 0.513
OXPHOS gene expression; [6]
  GE-HTS: −0.730
mtOXPHOS transcripts; [6]
  mitoOX: −0.265
[2]; [6]
  MTT: −0.612
C2C12 myotubes; [6]
  Viability: −0.015
Cytochrome c; [6]
  cyt c: 0.617
nuOXPHOS transcripts; [6]
  nucOX: −0.876

## O=C(CCCCCCCCCCCCC1CCCC1)Nc1ccc(S(=O)(=O)c2ccc(NC(=O)CCCCCCCCCCCCC3CCCC3)cc2)cc1 [chaulmosulfone]
[1]; Conc 20 μM
  ΔΨm (composite Z-score): −0.993
Reactive oxygen species; Conc 20 μM
  ROS (composite Z-score): 0.935
OXPHOS gene expression; Conc 20 μM
  GE-HTS (composite Z-score): 0.157
mtOXPHOS transcripts; Conc 20 μM
  mitoOX (composite Z-score): 0.305
[2]; Conc 20 μM
  MTT (composite Z-score): −0.289
C2C12 myotubes; Conc 20 μM
  Viability (composite Z-score): −0.010
Cytochrome c; Conc 20 μM
  cyt c (composite Z-score): −0.036
nuOXPHOS transcripts; Conc 20 μM
  nucOX (composite Z-score): 0.083

## O=C(O)CCCc1ccc(N(CCCl)CCCl)cc1 [chlorambucil]
[1]; [7]
  ΔΨm: 0.199
[1]; [8]
  ΔΨm: −0.826
Reactive oxygen species; [7]
  ROS: 0.056
Reactive oxygen species; [8]
  ROS: 0.165
OXPHOS gene expression; [7]
  GE-HTS: 0.249
OXPHOS gene expression; [8]
  GE-HTS: 0.725
mtOXPHOS transcripts; [7]
  mitoOX: 0.398
mtOXPHOS transcripts; [8]
  mitoOX: 1.273
[2]; [7]
  MTT: −0.069
[2]; [8]
  MTT: −1.519
C2C12 myotubes; [7]
  Viability: −0.507
C2C12 myotubes; [8]
  Viability: −0.007
Cytochrome c; [7]
  cyt c: 0.035
Cytochrome c; [8]
  cyt c: −0.955
nuOXPHOS transcripts; [7]
  nucOX: 0.147
nuOXPHOS transcripts; [8]
  nucOX: 0.360

## [H]/N=C(\N/C(=N/[H])NCCCCCCNC(=N)NC(=N)Nc1ccc(Cl)cc1)Nc1ccc(Cl)cc1 [chlorhexidine]
[1]; [9]
  ΔΨm: 0.348
[1]; [8]
  ΔΨm: 0.412
Reactive oxygen species; [9]
  ROS: −2.490
Reactive oxygen species; [8]
  ROS: 1.660
OXPHOS gene expression; [9]
  GE-HTS: 0.775
OXPHOS gene expression; [8]
  GE-HTS: −0.455
mtOXPHOS transcripts; [9]
  mitoOX: 0.140
mtOXPHOS transcripts; [8]
  mitoOX: −0.141
[2]; [9]
  MTT: −4.138
[2]; [8]
  MTT: −2.340
C2C12 myotubes; [9]
  Viability: −1.859
C2C12 myotubes; [8]
  Viability: −0.976
Cytochrome c; [9]
  cyt c: 0.090
Cytochrome c; [8]
  cyt c: −1.683
nuOXPHOS transcripts; [9]
  nucOX: 0.990
nuOXPHOS transcripts; [8]
  nucOX: −0.592

## Cc1cc(O)ccc1Cl [chlorocresol]
[1]; [8]
  ΔΨm: 0.528
Reactive oxygen species; [8]
  ROS: 0.102
OXPHOS gene expression; [8]
  GE-HTS: 0.206
mtOXPHOS transcripts; [8]
  mitoOX: −0.728
[2]; [8]
  MTT: −0.607
C2C12 myotubes; [8]
  Viability: −0.414
Cytochrome c; [8]
  cyt c: 0.747
nuOXPHOS transcripts; [8]
  nucOX: 0.611
